The source of these data is patent publication US20260200928A1, “THERAPEUTIC COMPOUNDS” (Sanofi, priority 2022, published 2026).

One may read the IC50 as the concentration at which inhibition is half-maximal.

For the assay, the target named is T1, human IL-17A (Homo sapiens, UniProt Q16552).
T1 construct: purchased R&D Systems 7955-IL/CF
T1 sequence (Q16552 24-155): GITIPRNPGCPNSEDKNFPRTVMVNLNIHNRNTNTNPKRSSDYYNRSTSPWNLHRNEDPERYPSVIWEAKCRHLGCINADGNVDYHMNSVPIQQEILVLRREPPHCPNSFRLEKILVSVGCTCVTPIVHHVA
In words: IL-17A AlphaLISA competition assay (block of IL-17A binding to its receptor IL-17RA). Conditions: mean IC50 (n≥2), block of IL-17A binding to IL-17RA. The method in brief: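 Human recombinant IL-17A (7.5 nM stock) pre-incubated 30 min at RT with compound, then IL-17RA/Fc (5 nM stock) added for 90 min; AlphaLISA read with anti-Fc acceptor beads, biotinylated anti-IL-17A antibody (5 nM) and streptavidin donor beads (3 h, dark). IC50 from 4-parameter logistic fit, normalised to DMSO and 4 μM reference inhibitor; n≥2.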
On the technique in general: Alpha assays give light when donor and acceptor beads are brought close together.
As for `Cc1n[nH]c(C)c1Cc1ccnc(NC(=O)[C@@H](NC(=O)OC(C)(C)C)[C@H]2CC[C@H](C)CC2)c1` [Example 79, Tert-butyl ((S)-2-((4-((3,5-dimethyl-1H-pyrazol-4-yl)methyl)pyridin-2-yl)amino)-1-((1r,4S)-4-methylcyclohexyl)-2-oxoethyl)carbamate], the IC50 is 5.27 µM.

For `CC(C)(C)OCC(NC(=O)c1nonc1C1CC1)C(=O)Nc1cc(CN2C[C@@H](C(F)(F)F)NC2=O)ccn1` (stereo partly drawn) [Example 82, N-(3-(tert-butoxy)-1-oxo-1-((4-(((S)-2-oxo-4-(trifluoromethyl)imidazolidin-1-yl)methyl)pyridin-2-yl)amino)propan-2-yl)-4-cyclopropyl-1,2,5-oxadiazole-3-carboxamide], the IC50 came out at 1.17 µM.

As to `Cn1nccc1C(=O)NC(COC(C)(C)C)C(=O)Nc1cc(CN2C[C@@H](C(F)(F)F)NC2=O)ccn1` (stereo partly drawn) [Example 83, N-(3-(tert-butoxy)-1-oxo-1-((4-(((S)-2-oxo-4-(trifluoromethyl)imidazolidin-1-yl)methyl)pyridin-2-yl)amino)propan-2-yl)-1-methyl-1H-pyrazole-5-carboxamide], the IC50 is 7.11 µM.

The compound `O=C(CCC(F)(F)F)NC(c1ccnc(NC(=O)[C@@H](NC(=O)c2nonc2C2CC2)C2CCC(F)(F)CC2)c1)C1CC1` (stereo partly drawn) [Example 96, 4-Cyclopropyl-N-((1S)-2-((4-(cyclopropyl(4,4,4-trifluorobutanamido)-methyl)pyridin-2-yl)amino)-1-(4,4-difluorocyclohexyl)-2-oxoethyl)-1,2,5-oxadiazole-3-carboxamide] came in with an IC50 of 0.096 µM.

`C[C@H]1CC[C@H]([C@H](NC(=O)NCc2ccccc2)C(=O)Nc2cc(CN3C[C@@H](C(F)(F)F)NC3=O)ccn2)CC1` [Example 97, (S)-2-(3-Benzylureido)-2-((1r,4S)-4-methylcyclohexyl)-N-(4-(((S)-2-oxo-4-(trifluoromethyl)imidazolidin-1-yl)methyl)pyridin-2-yl)acetamide] had a 50% inhibitory concentration (IC50) of 2.08 µM.

With `COCC(c1ccnc(NC(=O)[C@@H](NC(=O)c2ncccc2C)[C@H]2CC[C@H](C)CC2)c1)N1C[C@@H](C(F)(F)F)NC1=O` (stereo partly drawn) [Example 98, N-((1S)-2-((4-(2-Methoxy-1-((S)-2-oxo-4-(trifluoromethyl)imidazolidin-1-yl)ethyl)pyridin-2-yl)amino)-1-((1r,4S)-4-methylcyclohexyl)-2-oxoethyl)-3-methyl-picolinamide], the IC50 turned out to be 1.96 µM.

As for `O=C(NCc1ccccc1)N[C@H](C(=O)Nc1cc(CN2C[C@@H](C(F)(F)F)NC2=O)ccn1)C1CCC(F)(F)CC1` [Example 99, (S)-2-(3-Benzylureido)-2-(4,4-difluorocyclohexyl)-N-(4-(((S)-2-oxo-4-(trifluoromethyl)imidazolidin-1-yl)methyl)pyridin-2-yl)acetamide], the IC50 worked out at 6.79 µM.

The compound `C[C@@H](OC(C)(C)C)[C@@H](NC(=O)OCc1ccccc1)C(=O)Nc1cc(CN2C[C@@H](C(F)(F)F)NC2=O)ccn1` [Example 100, Benzyl ((2R,3R)-3-(tert-butoxy)-1-oxo-1-((4-(((S)-2-oxo-4-(trifluoromethyl)imidazolidin-1-yl)methyl)pyridin-2-yl)amino)butan-2-yl)carbamate] yielded an IC50 of 17.4 µM.

`C[C@@H](OC(C)(C)C)[C@H](NC(=O)OCc1ccccc1)C(=O)Nc1cc(CN2C[C@@H](C(F)(F)F)NC2=O)ccn1` [Example 101, benzyl ((2S,3R)-3-(tert-butoxy)-1-oxo-1-((4-(((S)-2-oxo-4-(trifluoromethyl)imidazolidin-1-yl)methyl)pyridin-2-yl)amino)butan-2-yl)carbamate] registered an IC50 of 5.39 µM.

`C[C@@H](OC(C)(C)C)[C@H](NC(=O)c1nonc1C1CC1)C(=O)Nc1cc(CN2C[C@@H](C(F)(F)F)NC2=O)ccn1` [Example 102, N-((2S,3R)-3-(tert-butoxy)-1-oxo-1-((4-(((S)-2-oxo-4-(trifluoromethyl)-imidazolidin-1-yl)methyl)pyridin-2-yl)amino)butan-2-yl)-4-cyclopropyl-1,2,5-oxadiazole-3-carboxamide] gave an IC50 of 0.356 µM.

`C[C@@H](OC(C)(C)C)[C@H](NC(=O)c1ccnn1C)C(=O)Nc1cc(CN2C[C@@H](C(F)(F)F)NC2=O)ccn1` [Example 103, N-((2S,3R)-3-(tert-butoxy)-1-oxo-1-((4-(((S)-2-oxo-4-(trifluoromethyl)-imidazolidin-1-yl)methyl)pyridin-2-yl)amino)butan-2-yl)-1-methyl-1H-pyrazole-5-carboxamide] came in with an IC50 of 1.74 µM.

In turn, `CC(C)(C)OC(=O)N[C@H](C(=O)Nc1cc(CN2C[C@@H](C(F)(F)F)NC2=O)ccn1)C(C1CC1)C1CC1` [Example 104, Tert-butyl ((S)-1,1-dicyclopropyl-3-oxo-3-((4-(((S)-2-oxo-4-(trifluoro-methyl)imidazolidin-1-yl)methyl)pyridin-2-yl)amino)propan-2-yl)carbamate] yielded an IC50 of 0.938 µM.

In the case of `O=C(CCC(F)(F)F)NC(c1ccnc(NC(=O)[C@@H](NC(=O)c2ncco2)C2CCC(F)(F)CC2)c1)C1CC1` (stereo partly drawn) [Example 105, N-((1S)-2-((4-(cyclopropyl(4,4,4-trifluorobutanamido)methyl)pyridin-2-yl)amino)-1-(4,4-difluorocyclohexyl)-2-oxoethyl)oxazole-2-carboxamide], the IC50 was determined as 3.34 µM.

`CC(C)n1nccc1C(=O)N[C@H](C(=O)Nc1cc(C(NC(=O)CCC(F)(F)F)C2CC2)ccn1)[C@H]1CC[C@H](C)CC1` (stereo partly drawn) [Example 106, N-((1S)-2-((4-(cyclopropyl(4,4,4-trifluorobutanamido)methyl)pyridin-2-yl)amino)-1-((1r,4S)-4-methylcyclohexyl)-2-oxoethyl)-1-isopropyl-1H-pyrazole-5-carboxamide] came in with an IC50 of 0.031 µM.

In turn, `Cn1nccc1C(=O)N[C@H](C(=O)Nc1cc([C@H](NC(=O)CCC(F)(F)F)C2CC2)ccn1)C1CCC(F)(F)CC1` [Example 107, N—((S)-2-((4-((R)-cyclopropyl(4,4,4-trifluorobutanamido)methyl)pyridin-2-yl)amino)-1-(4,4-difluorocyclohexyl)-2-oxoethyl)-1-methyl-1H-pyrazole-5-carboxamide] registered an IC50 of 0.177 µM.

As for `CCn1nccc1C(=O)N[C@H](C(=O)Nc1cc(C(NC(=O)CCC(F)(F)F)C2CC2)ccn1)C1CCC(F)(F)CC1` (stereo partly drawn) [Example 108, N-((1S)-2-((4-(cyclopropyl(4,4,4-trifluorobutanamido)methyl)pyridin-2-yl)amino)-1-(4,4-difluorocyclohexyl)-2-oxoethyl)-1-ethyl-1H-pyrazole-5-carboxamide], the IC50 was determined as 0.033 µM.

Consider `O=C(CCC(F)(F)F)NC(c1ccnc(NC(=O)[C@@H](NC(=O)c2cocn2)C2CCC(F)(F)CC2)c1)C1CC1` (stereo partly drawn) [Example 109, N-((1S)-2-((4-(cyclopropyl(4,4,4-trifluorobutanamido)methyl)pyridin-2-yl)amino)-1-(4,4-difluorocyclohexyl)-2-oxoethyl)oxazole-4-carboxamide], for which the IC50 is 7.8 µM.

Compound `CC(C)n1nccc1C(=O)N[C@H](C(=O)Nc1cc(C(NC(=O)CCC(F)(F)F)C2CC2)ccn1)C1CCC(F)(F)CC1` (stereo partly drawn) [Example 110, N-((1S)-2-((4-(cyclopropyl(4,4,4-trifluorobutanamido)methyl)pyridin-2-yl)amino)-1-(4,4-difluorocyclohexyl)-2-oxoethyl)-1-isopropyl-1H-pyrazole-5-carboxamide] gave an IC50 of 0.03 µM.
